How the values were obtained:
[1] = system: Calcium-reconstituted sheep blood; assay: Activated clotting time (ACT) in calcium-reconstituted sheep blood; format: biochemical; conditions: individual drug at 0.6 ng/mg
Method: The activated clotting time (ACT) evaluation of anticoagulants was performed in Calcium-reconstituted sheep blood and recorded employing the Hemochron® Response device. […] A target amount of drug solution was then added into the test tube. […] The tube was gently shaken before being inserted into the Hemochron Response detector. The ACT read out was recorded and reported. The ACT of the control blood in the absence of any drug as first determined to establish a baseline. Then ACT was determined in the presence of different concentrations of the drug as a single component. Selected drug combinations, were then tested to evaluate for potential synergy in action between the two drugs.

[2] = Drug concentration in PEG 300 supernatant and precipitation in phosphate buffered saline (HPLC); format: physicochemical; conditions: after 24 hours in DPBS
Method: The vial was sonicated with 40° C. heat for 30 minutes and then was placed in the 40° C. oven overnight for 20 hours. […] The crystal fine particles were verified by following. 100 µL of the clear PEG 300 solution was added to a vial with 4.3 mL of Dulbecco’s phosphate buffered saline to mimic the ophthalmic vitreous humor. […] The solution stands overnight for 24 hours at room temperature. […] The solution was then centrifuged, and the supernatant was analyzed by HPLC. […] The solution was sonicated 10 minutes until clear. […] The crystal fine particles were verified by following. […] The vial was sonicated with 40° C. heat for 30 minutes and then was placed in the 40° C. oven overnight for 20 hours.

[3] = system: porcine coronary artery; assay: Histopathology scores and QCA of anticoagulant eluting stents in porcine coronary artery model (Examples 2, 3); format: in vivo
Method: The mean score was calculated and reported. […] The smaller the fibrin score, the better efficacy.

[4] = In vivo drug released from / remaining on stent (HPLC); design: species or system porcine
Text: The stented artery was cut longitudinally with surgical scissors. The stents were separated from the tissue.

[5] = Example 3 stent, within 28 days

COc1ccc(-n2nc(C(N)=O)c3c2C(=O)N(c2ccc(N4CCCCC4=O)cc2)CC3)cc1 [Apixaban]
ACT [1]: 522
Fraction precipitated out to crystalline form [2]: 33%

CC1CNc2c(cccc2S(=O)(=O)N[C@@H](CCCNC(=N)N)C(=O)N2CC[C@@H](C)C[C@@H]2C(=O)O)C1 (stereo partly shown) [Argatroban]
Inhibition of fibrin formation compared to bare metal control stents ([3]; 7 days): not more effective
ACT [1]: 301

O=C(NC[C@H]1CN(c2ccc(N3CCOCC3=O)cc2)C(=O)O1)c1ccc(Cl)s1 [Rivaroxaban]
Inhibition of fibrin formation compared to bare metal control stents ([3]; 7 days): more effective
Inhibition of fibrin formation compared to control ([3]; Example 3, fast release formulation, 7 days and/or 28 days): more effective
Rivaroxaban amount released from stent ([4]; Example 3 stent, in combination with m-TOR inhibitor formulation, within 7 days): about 68.1 µg
Percent of rivaroxaban released from stent [4, 5]: about 92.5%
Rivaroxaban dose released from stent [4, 5]: about 92.5 µg
Cumulative Percent Release of drug by day 7, Rivaroxaban ([4]; Rivaroxaban/Argatroban combination stent): about 70.9%
Cumulative Percent Release of drug by day 7 ([4]; single-drug stent): about 99.5%

Dalteparin
Inhibition of fibrin formation compared to bare metal control stents ([3]; 7 days): not more effective
Inhibition of smooth muscle cell proliferation (LLL) compared to bare metal control stents ([3]; 7 days): not more effective
